Values joined by “and” are separate entries in the source; they are usually repeats but may differ in a detail not shown here. Equal entries are not always repeated.
Experiments:
[1] = system: osteopontin; assay: Assay B: osteopontin immunohistochemistry in the heart; assay type: in vivo, Male Sprague Dawley rats; conditions: aldosterone-infused rats, eplerenone 100 mpk, increased dietary potassium group
Experimental: Assay B: In Vivo Aldosterone Infusion Model Male Sprague Dawley rats (n=39; BW=250 g) 2. Aldosterone (0.75 mg/hr, sc via alzet minipump) 2. […] Determination of osteopontin and COX-2 was performed by quantitative RT-PCR (Taqman). Osteopontin was also identified in the heart by immunohistochemistry.

[2] = system: interstitial collagen; assay: Assay C: image analysis of interstitial collagen (Picrosirius Red), collagen volume fraction; assay type: in vivo, Male Sprague-Dawley rats; conditions: for ICVF (%): interstitial collagen volume fraction, eplerenone dose 100 mg/kg/day
Experimental: The procedure of Assay B was expanded upon in a further study. […] Myocardial tissue from animals in each treatment group was examined after 7, 14, or 30 days of treatment. […] Lesions were preceded by the expression and progressive upregulation of proinflammatory molecules. […] Prior to surgery the animals were individually weighed and placed in one of the following groups: […] Potassium chloride supplementation was added to the saline solution in order to prevent the potential hypokalemia associated with aldosterone excess. […] Louis, Mo.) was inserted subcutaneously at the nape of the neck. Aldosterone was administered at a dose of 0.75 µg/hour. […] Animals were sacrificed from each group (n=8-13) after 7, 14, or 30 days of treatment. The equatorial regions of the heart were routinely processed into paraffin with an automated tissue processor (Hypercenter XP, Shandon/Lipshaw Inc., Pittsburgh, Pa.) and embedded into fresh paraffin apical side down (Shandon Embedding Center, Shandon/Lipshaw Inc.). Five and 10 µm sections were cut from each block of tissue using a Leica RM2035 rotary microtome (Leica Inc., Houston, Tex.) and mounted on Superfrost/Plus microscope slides (Fisher Scientific, Pittsburgh, Pa.). Ten […]m sections were stained with the collagen specific stain, Picrosirius Red F3BA (Saturated Picric Acid (Sigma Chemical, St. […] Waterbury, Conn.) (6). Mounted tissues were hydrated with water. […] Slides were coverslipped with #1 cover glass using Permount Histological Mounting Media (Fisher Scientific). Two slides mounted with 5 µm sections were cut for each animal. One slide was processed for H&E staining and one for Periodic Acid Schiff (PAS) staining. The H&E and PAS were used for pathological scoring of the hearts. Picrosirius Red F3BA stained slides were used to quantify interstitial collagen with a Videometric 150 Image Analysis System (Oncor Inc., Gaitherburg, Md.). […] Garden City, N.Y.) attached to a Nikon Optiphot microscope (Nikon Inc.). A Toshiba 3 CCD Color Video Camera (Model#[…] Corp. Japan) relayed the images in RGB format from the microscope to a 386 computer with a […] video board. The […] video board/[…] software application (Oncor Inc.) converted RGB images to HIS (Hue, Intensity, Saturation) format for display and analysis on a Sony Trinitron Color Video Monitor (Model#PVM-1342Q, Sony Corp, Tokyo, Japan) at a magnification of 305×. […] The […] application then measured only pixels which fell into thresholding limits. The system was calibrated with a micrometer scale (EM Sciences, FT. Washington, Pa. 19034), which allowed data to be expressed in mm^2 or […]m^2.

[3] = group mean, data used for Table 15 (14 days of treatment)
[4] = group mean, data used for Table 16 (30 days of treatment)
[5] = mean ± SEM after 7 days of treatment
[6] = mean ± SEM after 14 days of treatment
[7] = mean ± SEM after 30 days of treatment

| Compound | Osteopontin expression in the heart (immunostaining) [1] | Collagen Volume Fraction (%) [2, 3] [%] | Collagen Volume Fraction (%) [2, 4] [%] | Collagen Volume Fraction (%) ([2]; individual rats, data used for Table 15 (14 days of treatment), incl. rat marked * excluded from statistics, listed as Aldosterone + salt) | Collagen Volume Fraction (%) ([2]; individual rats, data used for Table 16 (30 days of treatment), incl. rat marked * excluded from statistics, listed as Aldosterone + salt) | ICVF (%) [2, 5] [%] | ICVF (%) [2, 6] [%] | ICVF (%) [2, 7] [%] | Osteopontin expression in the heart (immunostaining) ([1]; listed as eplerenone) | Collagen Volume Fraction (%) ([2]; individual rats, data used for Table 15 (14 days of treatment), incl. rat marked * excluded from statistics, listed as Eplerenone + aldosterone + salt) | Collagen Volume Fraction (%) ([2]; individual rats, data used for Table 16 (30 days of treatment), incl. rat marked * excluded from statistics, listed as Eplerenone + aldosterone + salt) |
| --- | --- | --- | --- | --- | --- | --- | --- | --- | --- | --- | --- |
| C[C@]12CCC(=O)C=C1CC[C@@H]1[C@@H]2[C@@H](O)C[C@]2(C=O)[C@@H](C(=O)CO)CC[C@@H]12 [Aldosterone] | clearly identified in the media of coronary arteries | 5.1 | 7.9 | 4.4% and 5.4% and 3.2% (2×) and 5.9% (2×) and 4.6% (2×) and 3.9% and 4.8% and 3.4% and 6.4% and 9.0% | 6.6% and 8.8% and 7.2% (2×) and 7.1% and 9.3% and 6.8% and 4.0% and 14.5% | 5.6 ± 0.6 | 5.1 ±0.5 | 7.9 ± 1.0 | – | – | – |
| COC(=O)[C@@H]1CC2=CC(=O)CC[C@]2(C)[C@@]23O[C@@H]2C[C@@]2(C)[C@@H](CC[C@@]24CCC(=O)O4)[C@H]13 [Eplerenone] | prevented the expression of osteopontin | 4.5 | 6.2 | – | – | 5.4 ± 0.6 | 4.5 ± 0.3 | 6.2 ± 0.5 | prevention | 4.1% and 6.2% and 3.9% and 3.7% (2×) and 4.2% and 3.5% and 3.3% and 5.2% and 5.6% and 6.0% | 3.4% and 5.0% and 6.5% and 7.9% and 7.1% and 6.3% and 6.1% and 5.4% and 7.8% and 4.4% |

Reference: patent US6716829B2, “Aldosterone antagonist and cyclooxygenase-2 inhibitor combination therapy to prevent or treat inflammation-related cardiovascular disorders” (Pharmacia Corporation, priority 2000, dated 2004)
